Data set [1] can be described thus: 200 μL medium with five pre-germinated Arabidopsis (Ler) seedlings. Conditions: 22°C.
Data set [2] has as its system shoot apical meristems (SAMs) of clv3-2 seedlings. Put plainly: In vitro SAM assay in clv3-2 seedlings. It counts as in vivo, Arabidopsis. To be noted: for Sizes of SAMs of clv3-2 seedlings after treatment: 1 μM fusion protein, 8 days, 8-d-old clv3-2 seedlings, n = 8, P < 0.01 Student's t-test. As for the experimental part: (§1) In vitro activity assays of the TH-ProCLV3 fusion protein in SAMs were performed using clv3-2 and clv1-1 (both in Ler background) mutants of Arabidopsis, as described previously.
(§2) Seeds of clv1-1, clv2-1 and clv3-2 (all in Ler background), Col-0 and Ler were gas-sterilized as reported previously, and imbibed in sterilized distilled water at 4°C in dark for 2 days before plating. In vitro root and SAM assays were performed as described.

The test system of data set [3] is primary roots / root meristems (RMs) of Ler seedlings. Put plainly: In vitro root assay in Ler seedlings. It counts as in vivo, Arabidopsis. Conditions: for Concentration at which the peptide was active in the root assay (primary root length): Ler seedlings, 8-d inoculation, tested at 10 nM, 30 nM, 100 nM, 1 μM. As for the experimental part:
(§3) Similarly, in vitro root assays were performed in Ler and clv2-1 (in Ler background) seedlings.
To evaluate activities of above-mentioned synthetic peptides with various N-terminal extensions, we performed in vitro root assays using Ler seedlings. The lengths of primary roots were measured after 8-d inoculations with either CLV3p12, L-CLV3p13, EEL-CLV3p15, HEEL-CLV3p16 or LHEEL-CLV3p17 at concentrations of 10 nM, 30 nM, 100 nM, or 1 μM (Figure 4).
as §2

Data set [4] in a line: 200 μL liquid medium with five pre-germinated Ler seedlings (half-strength Murashige and Skoog, 1% sucrose, MES). To be noted: Arabidopsis thaliana (Ler), 22°C, up to 48 hrs.
A further data set relates to CLV1. Conditions: tobacco BY-2 cells; cited from earlier work. An excerpt:
(§4) CLV3 is one of the well-studied peptide hormones in plants. The CLV3 gene encodes a 96-AA secretory protein that functions in a feedback regulation loop to restrict the number of stem cells in SAMs by repressing the expression of the WUSCHEL (WUS) transcription factor [16, 21]. […] CLV3 sh ...

In data set [5] the test system is shoot and root meristems (RMs). To be noted: synthetic peptides corresponding to the CLE motif; cited from earlier work.
Source text: as §4

Data set [6] concerns shoot apical meristems (SAMs) of clv1-1 seedlings. Put plainly: In vitro SAM assay in clv1-1 seedlings. It counts as in vivo, Arabidopsis. Conditions: 1 μM fusion protein, 8-d-old clv1-1 seedlings, n = 8. As for the experimental part: as §1
The commonly known subtilase recognition site is Lys/Arg-Arg. Although in most CLE members of Arabidopsis the residue located before the conserved Arg of the 12-AA CLE motif is Lys (Additional file 3), for CLV3 the residue is Leu. We examined if a Leu69Lys substitution hampered the activity of the fusion protein. TH-ProCLV3Leu69Lys was produced in E. coli and applied to clv3-2 seedlings in vitro.
as §2

Data set [7] has as its system roots / root meristems (RMs) of clv2-1 seedlings. As to the kind of experiment: In vitro root assay in clv2-1 seedlings. To be noted: 1 μM TH-ProCLV3, 8-d-old clv2-1 seedlings, n = 8. It counts as in vivo, Arabidopsis. As for the experimental part: as §3, §2
The subject of another data set is WUS expression. Put plainly: qRT-PCR of WUS expression in shoot apices of clv3-2 seedlings. It is filed as in vivo, Arabidopsis. Conditions: 8-d-old clv3-2 seedlings, 1 μM fusion protein in liquid medium, normalised to EIF4A1, 3 independent biological repeats. On the procedure:
To address if these fusion proteins are able to repress the WUS expression in SAMs, qRT-PCR analyses were performed with cDNAs from shoot apices after treatments with various fusion proteins. […] In contrast, the expression level of WUS in the TH-ProCLV3Leu69Ala-treated clv3-2 seedlings was only about 50% of the untreated ones (Figure 5F).
Total RNA was extracted using a Plant Total RNA Isolation Kit (TIANGEN, Beijing, China) from approximately 30 shoot apices excised from 8-d-old seedlings cultured in fusion protein-containing liquid media, and then reverse transcribed to cDNA with the First Strand cDNA Synthesis Kit ReverTra Ace-α (TOYOBO, Japan). qRT–PCR was performed in a Rotor-Gene 3000 thermocycler (Corbett, Australia) with the SYBR Premix ExTaq II kit (TaKaRa, Dalian, China), and the relative expression levels of the WUS [GenBank: NM_127349.3] were normalized against the internal control EIF4A1 [GenBank: NM_001084679.1] and calculated using the Rotor-Gene 6 software v 6.0 (Corbett, Australia) according to the 2^-∆∆CT method. Primer pairs of 5’-[…]-3’ and 5’-[…] -3’, and 5’-TTCTCTGCGACAATGCCTC-3’ and 5’-GCTTCCAGTCTTCTTTC TCCAC-3’ were used to amplify WUS and EIF4A1, respectively.

Numbering of substitutions follows the chain as printed. “Also recorded” adds a separate entry of the source.

Regarding FNESMRLSPGGPDPRHH, in data set [1] (up to 3 d), the cleaved bond result was “Met-Arg, 3 d” and the fragment found entry is on record as “FNESMRLSPGGPDPRH; also recorded: FNESMRLSPGGPDPR; also recorded: FNESMRLSPGGPDP; also recorded: SMRLSPGGPDPR; also recorded: RLSPGGPDPR; also recorded: LSPGGPDPRHH; also recorded: SPGGPDPRHH; also recorded: SPGGPDPR”.

Turning to “MRLSPGGPDPRHH [M-CLE1p13, synthesized CLE1 peptide with 1 N-terminal flanking residue]”, the “Fold less active than CLE1p12 in restricting the sizes of SAMs” value in data set [2] (clv3-2 seedlings, 8-d incubation, 10 nM to 10 μM peptide, n = 16) is on record as “about 100 fold”.

As for “Trx-His-HAHVQGLSNRKMMMMKMESEWVGANGEAEKAKTKGLGLHEELRTVPSGPDPLHHHVNPPRQPRNNFQLP”, the cleaved bond entry in [1] (up to 48 hrs) is listed as “K38-Met39, major”.

Regarding HEELRTVPSGPDPLHH, the cleaved bond entry in data set [1] (up to 3 d) is listed as “Arg70-Thr71”.

For the molecule EELRTVPSGPDPLHH, the cleaved bond entry in data set [1] (up to 3 d) is recorded as “H-H81”.

On to “LHEELRTVPSGPDPLHH [LHEEL-CLV3p17, CLV3p12 with additional 5 N-terminal residues]”, for which the “Concentration at which the peptide was active in the root assay (primary root length)” value (shortened to “Concentration”) in data set [3] (n = 8) was determined as 10 nM.

With LHEEARTVPSGPDPLHH, the cleaved bond result in data set [1] (up to 3 d) was “H-H81”.

For LHEELRTVPSGPDPLHH, in [1] (up to 3 d), the cleaved bond entry is listed as “Leu69-Arg70, 3 d; also recorded: Arg70-Thr71, 3 d; also recorded: H-H81, first_seen, 2 d”.

Turning to “Trx-His-HAHVQGLSNRKMMMMMKMESEWVGANGEAEKAKTKGLGLHEELRTVPSGPDPLHHHVNPPRQPRNNFQLP”, the fragment found result in data set [4] is reported as “RTVPSGPDPLHH (CLV3p12); also recorded: RTVPSGPDPLHHH (CLV3p13)”.

As for “Trx-His-HAHVQGLSNRKMMMMMKMESEWVGANGEAEKAKTKGLGLHEEKRTVPSGPDPLHHHVNPPRQPRNNFQLP”, the fragment found result in data set [4] was “MMMMKMESEWVGANGEAEKAKTKGLGLHEEK”.

For RTVPSGPDPLHH, in [1] (up to 3 d), the cleaved bond result is given as “R70-T71; also recorded: H-H81”.

As for “Trx-His-HAHVQGLSNRKMMMMMKMESEWVGANGEAEKAKTKGLGLHEEARTVPSGPDPLHHHVNPPRQPRNNFQLP”, in [4], the fragment found entry was “CLV3p12 (RTVPSGPDPLHH); also recorded: CLV3p13 (RTVPSGPDPLHHH)”.

For the molecule RLSPGGPDPRHH, the fragment found result in data set [1] (up to 3 d) is reported as “RLSPGGPDPRH; also recorded: RLSPGGPDPR; also recorded: LSPGGPDPRHH; also recorded: SPGGPDPRHH; also recorded: SPGGPDPR”.

Turning to “RTVPSGPDPLHH [CLV3p12, chemically synthesized 12-AA CLV3 peptide corresponding to the CLE motif]”, the “Concentration” value in data set [3] (n = 8) is 10 nM. The “Interaction with CLV1” value in the data set with CLV1 is given as “Direct interaction”. For the same molecule, the “Function in promoting stem cell differentiation in vitro” value in data set [5] is “functional in promoting stem cell differentiation in both shoot and root meristems”.

Regarding “EELRTVPSGPDPLHH [EEL-CLV3p15, CLV3p12 with additional 3 N-terminal residues]”, the “Concentration” value in data set [3] (n = 8) is reported as 100 nM.

Consider LRTVPSGPDPLHH, for which the cleaved bond result in [1] (up to 3 d) is listed as “L69-R70; also recorded: R70-T71; also recorded: H-H81”.

B1: TH-ProCLV3: CLV3 proprotein without signal peptide, N-terminal Trx and His tags, produced in E. coli, 23.8 kD (protein, UniProt Q9XF04 22-96, looked up)
pro-form: SDLTQAHAHVQGLSNRKMMMMKMESEWVGANGEAEKAKTKGLGLHEELRTVPSGPDPLHHHVNPPRQPRNNFQLP
modifications: pro-form N-terminal thioredoxin and His tags
notes: CLV3 proprotein without signal peptide, N-terminal Trx and His tags, produced in E. coli, 23.8 kD
As to B1, in data set [2], the “Sizes of SAMs of clv3-2 seedlings after treatment” value (shortened to “Sizes of SAMs of clv3-2 seedlings”) is recorded as “significant reduced sizes of SAMs”. Besides, in [6], the “Sizes of SAMs of clv1-1 seedlings after treatment” value (shortened to “Sizes of SAMs of clv1-1 seedlings”) is “no evident reduction; also recorded: no significant differences”. For the same molecule, the “Root growth of Ler seedlings” value in data set [3] (1 μM TH-ProCLV3, 8-d-old Ler seedlings, n = 8) is “inhibited greatly”. Moreover, the “Root meristem (RM) state in Ler, microscopic examination” value in [3] (1 μM TH-ProCLV3, Ler seedlings) is recorded as “termination of RMs in Ler”. Moreover, the “Root growth of clv2-1 seedlings” value in data set [7] is “no evident growth inhibition”. For the same molecule, the “Expression level of WUS in shoot apices relative to non-treated clv3-2 seedlings” value with WUS expression is recorded as “about 10%”.

B2: TH-ProCLV3Leu69Ala: TH-ProCLV3 fusion protein with Leu69Ala substitution, produced in E. coli (protein, UniProt Q9XF04 22-96, looked up, variant L69A)
pro-form: B1 pro-form with L48A
modifications: pro-form N-terminal thioredoxin and His tags
notes: TH-ProCLV3 fusion protein with Leu69Ala substitution, produced in E. coli
As for B2, the “Sizes of SAMs of clv3-2 seedlings” value in [2] is given as “significantly larger than those treated with TH-ProCLV3”. In addition, in data set [6], the “Sizes of SAMs of clv1-1 seedlings” value is listed as “no significant differences”. Moreover, the “Expression level of WUS in shoot apices relative to non-treated clv3-2 seedlings” value in the data set on WUS expression is listed as “about 50%”.

B3: TH-ProCLV3Leu69Lys: TH-ProCLV3 fusion protein with Leu69Lys substitution, produced in E. coli (protein, UniProt Q9XF04 22-96, looked up, variant L69K)
pro-form: B1 pro-form with L48K
modifications: pro-form N-terminal thioredoxin and His tags
notes: TH-ProCLV3 fusion protein with Leu69Lys substitution, produced in E. coli
As to B3, in data set [2], the “Sizes of SAMs of clv3-2 seedlings” value is listed as “no significant difference”. The “Sizes of SAMs of clv1-1 seedlings” value in data set [6] is reported as “no significant differences”.

(Values after PMC3878228 (BMC Plant Biology, 2013).)
